# Experiments:
# [1] = fT>MIC in Pseudomonas aeruginosa selected at 32 ug/ml MIC infected human at 2 g, iv administered as 4 hrs infusion every 8 hrs; assay type: functional
# Homo sapiens [2] = test: fAUC in human at 2 g, iv administered as 4 hrs infusion every 8 hrs; assay type: ADME, organism-based; settings: in vivo
# Pseudomonas aeruginosa [3] = test: Antimicrobial activity against Pseudomonas aeruginosa isolate 1080 by broth microdilution method; assay type: functional
# [4] = fT>MIC in Pseudomonas aeruginosa selected at 32 ug/ml MIC infected human at 1 g, iv administered as 4 hrs infusion every 8 hrs; assay type: functional
# [5] = fT>MIC in Pseudomonas aeruginosa selected at 16 ug/ml MIC infected ICR mouse at 2 g, sc administered 2 hrs post infection every 8 hrs; assay type: functional
# Pseudomonas aeruginosa [6] = test: Antimicrobial activity against Pseudomonas aeruginosa selected at MIC […] to […] ug/ml infected ICR mouse assessed as reduction in bacterial load at 1g, sc administered 2 hrs post infection every 8 hrs; assay type: functional
# Homo sapiens [7] = test: fCmax in human at 1 g, iv administered as 4 hrs infusion every 8 hrs; assay type: ADME, organism-based; settings: in vivo
# Homo sapiens [8] = test: fCmax in human at 2 g, iv administered as 4 hrs infusion every 8 hrs; assay type: ADME, organism-based; settings: in vivo
# [9] = fT>MIC in Pseudomonas aeruginosa selected at 8 ug/ml MIC infected human at 2 g, iv administered as 4 hrs infusion every 8 hrs; assay type: functional
# Mus musculus [10] = test: fAUC in ICR mouse at 2 g, sc administered 2 hrs post infection every 8 hrs; assay type: ADME, organism-based; settings: in vivo
# Pseudomonas aeruginosa [11] = test: Antimicrobial activity against Pseudomonas aeruginosa selected at MIC […] to […] ug/ml infected ICR mouse assessed as reduction in bacterial load at 2g, sc administered 2 hrs post infection every 8 hrs; assay type: functional
# Pseudomonas aeruginosa [12] = test: Antimicrobial activity against Pseudomonas aeruginosa isolate 1093 by broth microdilution method; assay type: functional
# [13] = fT>MIC in Pseudomonas aeruginosa selected at 2 ug/ml MIC infected human at 1 g, iv administered as 4 hrs infusion every 8 hrs; assay type: functional
# Pseudomonas aeruginosa [14] = test: Antimicrobial activity against Pseudomonas aeruginosa isolate 896 by broth microdilution method; assay type: functional
# Pseudomonas aeruginosa [15] = test: Antimicrobial activity against Pseudomonas aeruginosa isolate 1036 by broth microdilution method; assay type: functional
# [16] = fT>MIC in Pseudomonas aeruginosa selected at 4 ug/ml MIC infected human at 1 g, iv administered as 4 hrs infusion every 8 hrs; assay type: functional
# [17] = fT>MIC in Pseudomonas aeruginosa selected at 16 ug/ml MIC infected human at 1 g, iv administered as 4 hrs infusion every 8 hrs; assay type: functional
# Pseudomonas aeruginosa [18] = test: Antimicrobial activity against Pseudomonas aeruginosa isolate 821 by broth microdilution method; assay type: functional
# Mus musculus [19] = test: fAUC in ICR mouse at 1 g, sc administered 2 hrs post infection every 8 hrs; assay type: ADME, organism-based; settings: in vivo
# [20] = fT>MIC in Pseudomonas aeruginosa selected at 4 ug/ml MIC infected human at 2 g, iv administered as 4 hrs infusion every 8 hrs; assay type: functional
# [21] = fT>MIC in Pseudomonas aeruginosa selected at 4 ug/ml MIC infected ICR mouse at 1 g, sc administered 2 hrs post infection every 8 hrs; assay type: functional
# [22] = fT>MIC in Pseudomonas aeruginosa selected at 16 ug/ml MIC infected ICR mouse at 1 g, sc administered 2 hrs post infection every 8 hrs; assay type: functional
# Pseudomonas aeruginosa [23] = test: Antimicrobial activity against Pseudomonas aeruginosa isolate 971 by broth microdilution method; assay type: functional
# [24] = fT>MIC in Pseudomonas aeruginosa selected at 8 ug/ml MIC infected ICR mouse at 2 g, sc administered 2 hrs post infection every 8 hrs; assay type: functional
# Pseudomonas aeruginosa [25] = test: Antimicrobial activity against Pseudomonas aeruginosa isolate 856 by broth microdilution method; assay type: functional
# [26] = fT>MIC in Pseudomonas aeruginosa selected at 4 ug/ml MIC infected ICR mouse at 2 g, sc administered 2 hrs post infection every 8 hrs; assay type: functional
# Pseudomonas aeruginosa [27] = test: Antimicrobial activity against Pseudomonas aeruginosa isolate 878 by broth microdilution method; assay type: functional
# Pseudomonas aeruginosa [28] = test: Antimicrobial activity against Pseudomonas aeruginosa isolate 22 by broth microdilution method; assay type: functional
# Pseudomonas aeruginosa [29] = test: Antimicrobial activity against Pseudomonas aeruginosa isolate 944 by broth microdilution method; assay type: functional
# Mus musculus [30] = test: fCmax in ICR mouse at 2 g, sc administered 2 hrs post infection every 8 hrs; assay type: ADME, organism-based; settings: in vivo
# Pseudomonas aeruginosa [31] = test: Antimicrobial activity against Pseudomonas aeruginosa isolate 988 by broth microdilution method; assay type: functional
# Pseudomonas aeruginosa [32] = test: Antimicrobial activity against Pseudomonas aeruginosa isolate 927 by broth microdilution method; assay type: functional
# Pseudomonas aeruginosa [33] = test: Antimicrobial activity against Pseudomonas aeruginosa isolate 968 by broth microdilution method; assay type: functional
# [34] = fT>MIC in Pseudomonas aeruginosa selected at 2 ug/ml MIC infected human at 2 g, iv administered as 4 hrs infusion every 8 hrs; assay type: functional
# Pseudomonas aeruginosa [35] = test: Antimicrobial activity against Pseudomonas aeruginosa isolate 1095 by broth microdilution method; assay type: functional
# Pseudomonas aeruginosa [36] = test: Antimicrobial activity against Pseudomonas aeruginosa isolate 913 by broth microdilution method; assay type: functional
# Pseudomonas aeruginosa [37] = test: Antimicrobial activity against Pseudomonas aeruginosa isolate 1006 by broth microdilution method; assay type: functional
# [38] = fT>MIC in Pseudomonas aeruginosa selected at 8 ug/ml MIC infected human at 1 g, iv administered as 4 hrs infusion every 8 hrs; assay type: functional
# [39] = fT>MIC in Pseudomonas aeruginosa selected at 32 ug/ml MIC infected ICR mouse at 2 g, sc administered 2 hrs post infection every 8 hrs; assay type: functional
# Pseudomonas aeruginosa [40] = test: Antimicrobial activity against Pseudomonas aeruginosa isolate 1060 by broth microdilution method; assay type: functional
# [41] = fT>MIC in Pseudomonas aeruginosa selected at 16 ug/ml MIC infected human at 2 g, iv administered as 4 hrs infusion every 8 hrs; assay type: functional
# [42] = fT>MIC in Pseudomonas aeruginosa selected at 32 ug/ml MIC infected ICR mouse at 1 g, sc administered 2 hrs post infection every 8 hrs; assay type: functional
# Pseudomonas aeruginosa [43] = test: Antimicrobial activity against Pseudomonas aeruginosa isolate 1050 by broth microdilution method; assay type: functional
# [44] = fT>MIC in Pseudomonas aeruginosa selected at 2 ug/ml MIC infected ICR mouse at 2 g, sc administered 2 hrs post infection every 8 hrs; assay type: functional
# Mus musculus [45] = test: fCmax in ICR mouse at 1 g, sc administered 2 hrs post infection every 8 hrs; assay type: ADME, organism-based; settings: in vivo
# [46] = fT>MIC in Pseudomonas aeruginosa selected at 2 ug/ml MIC infected ICR mouse at 1 g, sc administered 2 hrs post infection every 8 hrs; assay type: functional
# Homo sapiens [47] = test: fAUC in human at 1 g, iv administered as 4 hrs infusion every 8 hrs; assay type: ADME, organism-based; settings: in vivo
# [48] = fT>MIC in Pseudomonas aeruginosa selected at 8 ug/ml MIC infected ICR mouse at 1 g, sc administered 2 hrs post infection every 8 hrs; assay type: functional
structure (smiles),measurement,setting,value
C[C@@H](O)[C@H]1C(=O)N2C(C(=O)O)=C(S[C@@H]3CN[C@H](CNS(N)(=O)=O)C3)[C@H](C)[C@H]12 [DORIPENEM],fT>MIC,[1],0%
same,fAUC,Homo sapiens [2],129300 ng·h/mL
same,MIC,Pseudomonas aeruginosa [3],32 µg/mL
same,fT>MIC,[4],0%
same,fT>MIC,[5],52.5%
same,log10cfu,Pseudomonas aeruginosa [6],>=2
same,fCmax,Homo sapiens [7],15.6 µg/mL
same,fCmax,Homo sapiens [8],31.2 µg/mL
same,fT>MIC,[9],65%
same,fAUC,Mus musculus [10],137100 ng·h/mL
same,log10cfu,Pseudomonas aeruginosa [11],>=2
same,MIC,Pseudomonas aeruginosa [12],32 µg/mL
same,fT>MIC,[13],80%
same,MIC,Pseudomonas aeruginosa [14],8 µg/mL
same,MIC,Pseudomonas aeruginosa [15],2 µg/mL
same,fT>MIC,[16],65%
same,fT>MIC,[17],0%
same,MIC,Pseudomonas aeruginosa [18],32 µg/mL
same,fAUC,Mus musculus [19],68600 ng·h/mL
same,fT>MIC,[20],80%
same,fT>MIC,[21],70%
same,fT>MIC,[22],0%
same,MIC,Pseudomonas aeruginosa [23],16 µg/mL
same,fT>MIC,[24],70%
same,MIC,Pseudomonas aeruginosa [25],16 µg/mL
same,fT>MIC,[26],82.5%
same,MIC,Pseudomonas aeruginosa [27],8 µg/mL
same,MIC,Pseudomonas aeruginosa [28],8 µg/mL
same,MIC,Pseudomonas aeruginosa [29],4 µg/mL
same,fCmax,Mus musculus [30],31.9 µg/mL
same,MIC,Pseudomonas aeruginosa [31],8 µg/mL
same,MIC,Pseudomonas aeruginosa [32],16 µg/mL
same,MIC,Pseudomonas aeruginosa [33],16 µg/mL
same,fT>MIC,[34],95%
same,MIC,Pseudomonas aeruginosa [35],4 µg/mL
same,MIC,Pseudomonas aeruginosa [36],16 µg/mL
same,MIC,Pseudomonas aeruginosa [37],8 µg/mL
same,fT>MIC,[38],50%
same,fT>MIC,[39],0%
same,MIC,Pseudomonas aeruginosa [40],4 µg/mL
same,fT>MIC,[41],50%
same,fT>MIC,[42],0%
same,MIC,Pseudomonas aeruginosa [43],4 µg/mL
same,fT>MIC,[44],95%
same,fCmax,Mus musculus [45],15.9 µg/mL
same,fT>MIC,[46],82.5%
same,fAUC,Homo sapiens [47],64700 ng·h/mL
same,fT>MIC,[48],52.5%
C[C@@H](O)[C@H]1C(=O)N2C(C(=O)O)=C(S[C@@H]3CN[C@H](C(=O)N(C)C)C3)[C@H](C)[C@H]12 [MEROPENEM],MIC,Pseudomonas aeruginosa [3],≥ 32 µg/mL
same,MIC,Pseudomonas aeruginosa [12],≥ 32 µg/mL
same,MIC,Pseudomonas aeruginosa [14],12 µg/mL
same,MIC,Pseudomonas aeruginosa [15],4 µg/mL
same,MIC,Pseudomonas aeruginosa [18],≥ 32 µg/mL
same,MIC,Pseudomonas aeruginosa [23],≥ 32 µg/mL
same,MIC,Pseudomonas aeruginosa [25],≥ 32 µg/mL
same,MIC,Pseudomonas aeruginosa [27],≥ 32 µg/mL
same,MIC,Pseudomonas aeruginosa [28],16 µg/mL
same,MIC,Pseudomonas aeruginosa [29],12 µg/mL
same,MIC,Pseudomonas aeruginosa [31],16 µg/mL
same,MIC,Pseudomonas aeruginosa [32],≥ 32 µg/mL
same,MIC,Pseudomonas aeruginosa [33],≥ 32 µg/mL
same,MIC,Pseudomonas aeruginosa [35],4 µg/mL
same,MIC,Pseudomonas aeruginosa [36],≥ 32 µg/mL
same,MIC,Pseudomonas aeruginosa [37],≥ 32 µg/mL
same,MIC,Pseudomonas aeruginosa [40],4 µg/mL
same,MIC,Pseudomonas aeruginosa [43],≥ 32 µg/mL

# — ChEMBL document CHEMBL1649285, “In vivo efficacy of 1- and 2-gram human simulated prolonged infusions of doripenem against Pseudomonas aeruginosa” (Antimicrob Agents Chemother, 2009)
